Assays:
cotton = experiment: Cotton yield in the verticillium wilt experiment; type: in vivo, cotton (Xinluzhong 66)
Description: Method: A total of five treatments were set, including: the sample in three concentrations; the positive control; and the blank control. An agent was sprayed once at each of a seedling stage (May 28) and a bud stage (June 28) of cotton, where a concentration was adjusted each time. Concentration changes of the sodium iron chlorophyllin and controls (first to fifth treatments) were as follows:
The harvesting was conducted on Nov. 15, 2020. […] The growth of cotton was first counted. Then, the harvesting was conducted, and a yield increase rate was calculated.

[1] = Dilution and pH determination for sample solutions; type: physicochemical
Description: Method: 0.2500 g of a sample was accurately weighed and added to a 25 mL volumetric flask, dissolved with purified water, and diluted to a specified scale to prepare a 1.00% (10,000.0 ppm) initial solution. The initial solution was diluted with purified water in different ratios to prepare a series of solutions with a concentration of 1,000.0 ppm to 0.1 ppm. A pH value of each sample was determined three times.

[2] = Stability of sample solutions in the dark/under light; type: physicochemical; settings: under light 30,000 lux, salts in water, acidic reference in 30% to 50% ethanol
Procedure, shortened: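 Salt in water, or acidic reference in 30–50% aqueous ethanol, at about 10 ppm; UV absorbance scanned 200–800 nm at 0, 1, 2, 3 h, stored at 25° C dark or under 30,000 lux light. Relative content = max-peak absorbance at each time divided by 0 h value (100%).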

tomato = experiment: Spraying on tomato to increase a yield; type: in vivo, tomato (Jinfan 1615); settings: 0.05 ppm sprayed twice; for Yield increase rate: versus control
Description: During cultivation, flat planting, plastic mulching, seedling transplanting, and pressurized drip irrigation were adopted. On April 29, seedlings were transplanted at 2,600 seedlings/mu. An area of 20 mu was adopted for each of control and treatment groups. Each treatment region was sprayed with a sodium iron chlorophyllin solution at a concentration of 0.05 ppm twice in an early flowering stage (May 22, 2021) and a fruit setting stage (Jun. 5, 2021), respectively.
The harvesting was conducted on August 3. During the harvesting, 5 plants were continuously and randomly selected from each treatment for sampling statistics.

rice = experiment: Spraying on flooded rice; type: in vivo, rice (Nanjing 9108); settings: 10.0 ppm solution, 1.2 L/mu (12.0 mg/mu), aerial application after 10 d waterlogging; moisture content 16.5%
Description: Waterlogging: On Jul. 10, 2021, an area of 20 mu was flooded. The floodwater receded on July 20. During the 10 d of waterlogging, the plant was totally submerged for nearly 4 d and was mostly submerged for nearly 6 d. After the floodwater receded, rice plants were weak and had yellow and drooping leaves.
Method: A 10.0 ppm sodium iron chlorophyllin solution was sprayed on 10 mu of land through aerial application at an average amount of 1.2 L/mu (sodium iron chlorophyllin amount: 12.0 mg/mu). 10 mu of land was taken as a blank control (0 mg/mu).

mung bean seedlings = experiment: Inducing adventitious roots from hypocotyls of mung bean; type: in vivo; settings: day 7
Description: Test solution preparation: 8 mL of a commercially-available STANLEY universal hydroponic nutrient solution was taken and diluted with tap water to 3,200 mL (400-fold dilution) to produce a dilute nutrient solution. An appropriate amount of each of salt samples such as protoporphyrin disodium and potassium chlorhematin was weighed and prepared with the dilute nutrient solution into 0.010 ppm and 0.1 ppm sample test solutions, and 150 mL of each test solution was taken. 150 mL of the dilute nutrient solution was taken as a blank control. The test solutions and the control solution were placed in brown bottles, and the brown bottles were sealed with a black film. Mung bean seedlings with uniform growth and a seedling height of 7 cm to 8 cm were selected, and cut at 3 cm below a first true leaf node. 8 mung bean seedlings were inserted into each bottle (with roots removed) to make lower radicles soaked in a solution. Mung bean seedlings were treated at room temperature of 20° C. to 25° C. for 7 d in total, during which the solution was changed every 2 d. On day 2 to day 3 of the treatment, there was a significant difference. On day 7, the observation and determination were conducted. An average adventitious root number and an average total adventitious root length for each seedling were calculated, and results were shown in the following table: […]

[3] = system: verticillium wilt in cotton; experiment: Spraying on cotton to control verticillium wilt; type: in vivo, cotton (Xinluzhong 66)
Description: Method: A total of five treatments were set, including: the sample in three concentrations; the positive control; and the blank control. An agent was sprayed once at each of a seedling stage (May 28) and a bud stage (June 28) of cotton, where a concentration was adjusted each time. Concentration changes of the sodium iron chlorophyllin and controls (first to fifth treatments) were as follows: [table] […] A three-point survey method was adopted for each treatment, and 100 plants were selected at each point. A control effect was surveyed.

chlorophyllase = experiment: In vitro chlorophyllase-inhibiting activity test; type: biochemical, mung bean; settings: substrate chlorophyll 120 ppm, sample 0.3 ppm to 30.0 ppm
Description: A chlorophyllase inhibition rate of a salt sample solution at each concentration was determined, and an IC50 value for a chlorophyllase inhibition activity of a salt sample was calculated.

[4] = First treatment (0.167 / 0.500 ppm)
[5] = Second treatment (0.500 / 0.188 ppm)
[6] = Third treatment (1.000 / 0.833 ppm)
[7] = First treatment (0.167 ppm seedling stage, 0.500 ppm bud stage), first survey (June 28)
[8] = First treatment (0.167 ppm seedling stage, 0.500 ppm bud stage), second survey (August 10)
[9] = Second treatment (0.500 ppm seedling stage, 0.188 ppm bud stage), first survey (June 28)
[10] = Second treatment (0.500 ppm seedling stage, 0.188 ppm bud stage), second survey (August 10)
[11] = Third treatment (1.000 ppm seedling stage, 0.833 ppm bud stage), first survey (June 28)
[12] = Third treatment (1.000 ppm seedling stage, 0.833 ppm bud stage), second survey (August 10)

sodium iron chlorophyllin
Actual seed cotton yield per mu (cotton; [4]): 380.8 kg/mu | Average cotton boll weight (cotton; [4]): 5.2 g | Effective cotton boll number in 0.01 mu (cotton; [4]): 812.0 | Yield increase rate (cotton; [4]): 7.94% | Actual seed cotton yield per mu (cotton; [5]): 374.9 kg/mu | Average cotton boll weight (cotton; [5]): 5.3 g | Effective cotton boll number in 0.01 mu (cotton; [5]): 786.1 | Actual seed cotton yield per mu (cotton; [6]): 386.9 kg/mu | Average cotton boll weight (cotton; [6]): 5.3 g | Effective cotton boll number in 0.01 mu (cotton; [6]): 812.0 | Yield increase rate (cotton; [6]): 9.66% | pH ([1]; 0.1 ppm in purified water): (6.68) | pH ([1]; 1.0 ppm in purified water): (6.95) | pH ([1]; 10.0 ppm in purified water): (7.14) | pH ([1]; 20.0 ppm in purified water): (7.52) | pH ([1]; 30.0 ppm in purified water): (7.63) | pH ([1]; 100.0 ppm in purified water): (8.18) | pH ([1]; 1000.0 ppm in purified water): (10.05) | pH ([1]; 10000.0 ppm in purified water): (10.87) | Relative content ([2]; 1 h): 61.61% | Relative content ([2]; 2 h): 54.63% | Relative content ([2]; 3 h): 53.29% | Average single-fruit weight (tomato): 51.3 g | Ear number/plant (tomato): 6.9 | Green fruit number/plant (tomato): 13.8 fruit | Red fruit number/plant (tomato): 46.4 fruit | Yield per mu (tomato): 6188.8 kg/mu | increase of red-to-green fruit ratio compared with the control (tomato): 5.91% | red-to-green fruit ratio (tomato): 3.36 | Yield increase rate (tomato): 27.15% | Yield increase rate (tomato; listed as sodium iron chlorophyllin): more than 27% | yield of the treatment field (rice): 720 kg/mu | Adventitious root number (mung bean seedlings; 0.01 ppm): 14.51 root/seedling | Total adventitious root length (mung bean seedlings; 0.01 ppm): 20.06 cm/seedling | Adventitious root number (mung bean seedlings; 0.1 ppm): 13.67 root/seedling | Total adventitious root length (mung bean seedlings; 0.1 ppm): 19.40 cm/seedling | Average diseased plant rate [3, 7]: 2.2% | Control effect [3, 7]: 35.29% | Average diseased plant rate [3, 8]: 5.6% | Control effect [3, 8]: 35.63% | Average diseased plant rate [3, 9]: 2.3% | Control effect [3, 9]: 32.35% | Average diseased plant rate [3, 10]: 4.8% | Control effect [3, 10]: 44.83% | Average diseased plant rate [3, 11]: 1.8% | Control effect [3, 11]: 47.06% | Average diseased plant rate [3, 12]: 4.1% | Control effect [3, 12]: 49.42% | IC50 for chlorophyllase inhibition activity (chlorophyllase): 5.41 ppm
